# Test results taken from patent publication US7659366B2, “Peptide with putative role in cytoskeletal protection” (priority 2005, dated 2010).
# Numbered stars: 1 amine (or outer) side, 2 acyl side, 3 side chain; on linkers, the order of the positions; unused ones are H or OH. Bridge positions count the residues as written; N and C are the ends. Square brackets hold non-standard residues; d marks the D form. Peptide text beside a SMILES is read from it. Trp(2-yl) = O=C([C@H](Cc1c([*:3])[nH]c2ccccc12)N[*:1])[*:2]; Leu(4R-OH,5-OH) = C[C@](O)(CO)C[C@H](N)C(=O)O; cisHyp = O=C(O)[C@@H]1C[C@H](O)CN1
# Target: T1, G-actin (pyrene-labeled) (Oryctolagus cuniculus, UniProt P68135)
# T1 construct: purchased Cytoskeleton, Inc., Colorado
# Assay: In vitro polymerization of pyrene-labeled G-actin
# Assay type: biochemical
# Details: buffer G with 1 mM MgCl2; conjugate 50 μg/ml, phalloidin 4 μM
# Method: In vitro polymerization of G-actin was performed according to the method of Maul and coworkers (Maul et al., 2003).
# This in vitro assay is based on the enhanced fluorescence of pyrene-conjugated actin that occurs during polymerization in vitro.
# For conducting the polymerization assay, general actin buffer containing pyrene actin and ATP was added to the wells. Then polymerization buffer, samples (P34 free peptide, P33 free peptide, P34BSA and P33BSA), and phalloidin (as positive control) were added to the wells. Then fluorescence intensity was read with a spectrophotometer (Excitation: 360 nm; Emission: 410 nm). The reading was done for 15 minutes with intervals of 30 seconds.
# For the assay to determine inhibition of polymerization, all the wells contained polymerization buffer to initiate polymerization. […]
# As mentioned above, in vitro polymerization of G-actin was performed according to the method of Maul and coworkers (Maul et al., 2003). […] 5 μl samples were applied on a microscope slide, and examined by fluorescence microscopy.
# P34BSA was tested for the capacity to inhibit or induce actin polymerization. […] The fluorescence intensity of the mixture was read with a microplate fluorescence reader (FL600, Bio-Tek®; Ex. 360 nm, +/−20 nm bandwidth; Em. 410 nm, +/−10 nm bandwidth). The emissions were recorded for 15 min at 30 sec intervals. […]
smiles,measurement,value
"C[C@@H]1NC(=O)[C@H](C[C@@](C)(O)CO)NC(=O)[C@@H]2Cc3c([nH]c4ccccc34)SC[C@H](NC(=O)[C@@H]([C@H](C)O)NC1=O)C(=O)N1C[C@@H](O)C[C@H]1C(=O)N[C@@H](C)C(=O)N2 [phalloidin] (cyclo(A[dT]C[cisHyp]A[Trp(2-yl)][Leu(4R-OH,5-OH)]); thioether 3-6)",induction of actin polymerization,able to promote polymerization
